System: pBMC from patients with CLL
Test: Cytotoxicity of several antineoplastic agents on pBMC (LC90), fixed volume flow cytometry
Format: cell-based, human
Conditions: in µg/mL
Source text: The necessary peripheral blood (PB) samples from adult patients diagnosed with chronic lymphatic leukaemia (CLL) were collected into heparin during routine diagnosis prior to administration of chemotherapy.

[1] = pBMC of CLL patient #1, ex vivo
[2] = pBMC of CLL patient #2, ex vivo
[3] = pBMC of CLL patient #3, ex vivo
[4] = pBMC of CLL patient #4, ex vivo
[5] = pBMC of CLL patient #5, ex vivo
[6] = pBMC of CLL patient #6, ex vivo
[7] = pBMC of CLL patient #7, ex vivo
[8] = pBMC of CLL patient #8, ex vivo
[9] = pBMC of CLL patient #9, ex vivo
[10] = pBMC of CLL patient #10, ex vivo
[11] = pBMC of CLL patient #11, ex vivo
[12] = pBMC of CLL patient #12, ex vivo
[13] = pBMC of CLL patient #13, ex vivo
[14] = pBMC of CLL patient #14, ex vivo
[15] = pBMC of CLL patient #15, ex vivo
[16] = pBMC of CLL patient #16, ex vivo
[17] = pBMC of CLL patient #17, ex vivo
[18] = pBMC of CLL patient #18, ex vivo
[19] = pBMC of CLL patient #19, ex vivo
[20] = pBMC of CLL patient #20, ex vivo
[21] = pBMC of CLL patient #21, ex vivo
[22] = pBMC of CLL patient #22, ex vivo
[23] = pBMC of CLL patient #23, ex vivo
[24] = pBMC of CLL patient #24, ex vivo
[25] = pBMC of CLL patient #25, ex vivo

## C[C@]12C=CC(=O)C=C1CC[C@@H]1[C@@H]2[C@@H](O)C[C@@]2(C)[C@H]1CC[C@]2(O)C(=O)CO [Prednisolone ®, Prednisolone]
[1]
  LC90: 40.69
[2]
  LC90: 21.96
[3]
  LC90: 12.17
[4]
  LC90: 2.25
[5]
  LC90: 12.67
[6]
  LC90: 0.88
[7]
  LC90: 35.35
[8]
  LC90: 29.81
[9]
  LC90: 33.00
[10]
  LC90: 11.71
[11]
  LC90: 0.46
[12]
  LC90: 0.86
[13]
  LC90: 2.56
[14]
  LC90: 0.56
[15]
  LC90: 0.82
[16]
  LC90: 0.19
[17]
  LC90: 35.69
[18]
  LC90: 0.51
[19]
  LC90: 0.98
[20]
  LC90: 99.92
[21]
  LC90: 0.54
[22]
  LC90: 12.76
[23]
  LC90: 0.82
[24]
  LC90: 48.18
[25]
  LC90: 0.48

## CC[C@]1(O)C[C@H]2CN(CCc3c([nH]c4ccccc34)[C@@](C(=O)OC)(c3cc4c(cc3OC)N(C=O)[C@H]3[C@@](O)(C(=O)OC)[C@H](OC(C)=O)[C@]5(CC)C=CCN6CC[C@]43[C@@H]65)C2)C1 [Oncovin ®, Vincristin]
[1]
  LC90: 2.51
[2]
  LC90: 0.47
[3]
  LC90: 0.14
[4]
  LC90: 10.96
[5]
  LC90: 0.33
[6]
  LC90: 0.07
[7]
  LC90: 0.88
[8]
  LC90: 10.23
[9]
  LC90: 0.47
[10]
  LC90: 0.41
[11]
  LC90: 0.21
[12]
  LC90: 0.97
[13]
  LC90: 0.24
[14]
  LC90: 0.04
[15]
  LC90: 0.44
[16]
  LC90: 0.13
[17]
  LC90: 0.41
[18]
  LC90: 0.70
[19]
  LC90: 0.10
[20]
  LC90: 0.42
[21]
  LC90: 0.10
[22]
  LC90: 0.30
[23]
  LC90: 0.08
[24]
  LC90: 61.57
[25]
  LC90: 0.23

## O=C1c2c(O)ccc(O)c2C(=O)c2c(NCCNCCO)ccc(NCCNCCO)c21 [Novantrone ®, Mitoxantrone]
[1]
  LC90: 0.06
[2]
  LC90: 0.03
[3]
  LC90: 0.19
[4]
  LC90: 0.15
[5]
  LC90: 0.11
[6]
  LC90: 13.37
[7]
  LC90: 0.14
[8]
  LC90: 0.02
[9]
  LC90: 0.10
[10]
  LC90: 0.05
[11]
  LC90: 12.80
[12]
  LC90: 0.06
[13]
  LC90: 0.40
[14]
  LC90: 0.09
[15]
  LC90: 0.05
[16]
  LC90: 0.01
[17]
  LC90: 0.03
[18]
  LC90: 0.08
[19]
  LC90: 0.07
[20]
  LC90: 0.02
[21]
  LC90: 0.05
[22]
  LC90: 0.05
[23]
  LC90: 0.01
[24]
  LC90: 12.77
[25]
  LC90: 0.17

## Nc1nc(Cl)nc2c1ncn2[C@H]1C[C@H](O)[C@@H](CO)O1 [Cladribine ®, Cladribine]
[1]
  LC90: 0.185
[2]
  LC90: 0.184
[3]
  LC90: 0.159
[4]
  LC90: 0.107
[5]
  LC90: 0.083
[6]
  LC90: 0.080
[7]
  LC90: 0.063
[8]
  LC90: 0.059
[9]
  LC90: 0.052
[10]
  LC90: 0.048
[11]
  LC90: 0.047
[12]
  LC90: 0.040
[13]
  LC90: 0.029
[14]
  LC90: 0.027
[15]
  LC90: 0.024
[16]
  LC90: 0.017
[17]
  LC90: 0.015
[18]
  LC90: 0.013
[19]
  LC90: 0.007
[20]
  LC90: 0.006
[21]
  LC90: 0.005
[22]
  LC90: 0.004
[23]
  LC90: 0.000
[24]
  LC90: 8.100
[25]
  LC90: 1.967

Reference: patent US20100075370A1, “METHOD FOR DETERMINATION OF CELL VIABILITY BY USING FLOW CYTOMETRY WITH FIXED VOLUME ACQUISITION” (TUMORTEC GMBH, priority 2006, published 2010)
